Tested on: Phospholipidosis
Assay: Literature-mined public compounds from Kruhlak et al phospholipidosis modelling dataset

SMILES | Phospholipidosis
CC(COc1ccccc1)NC(C)C(O)c1ccc(O)cc1 (stereo unspecified) [ISOXSUPRINE] | Negative: based on the absence of positive reported data from WMDD
NC[C@H]1O[C@H](O[C@H]2[C@H](O)[C@@H](O[C@H]3O[C@H](CO)[C@@H](O)[C@H](N)[C@H]3O)[C@H](N)C[C@@H]2N)[C@H](O)[C@@H](O)[C@@H]1O [KANAMYCIN A] | Negative: based on the absence of positive reported data from WMDD
CC(=O)N1CCN(c2ccc(OCC3COC(Cn4ccnc4)(c4ccc(Cl)cc4Cl)O3)cc2)CC1 (stereo unspecified) [KETOCONAZOLE] | Positive: weak inducer based on presence of foamy macrophages and cytoplasmic vacuolations
CN1CCC(=C2c3ccccc3CC(=O)c3sccc32)CC1 [KETOTIFEN] | Negative: based on the absence of positive reported data from WMDD
CC(CCc1ccccc1)NCC(O)c1ccc(O)c(C(N)=O)c1 (stereo unspecified) [LABETALOL] | Positive: weak inducer based on presence of foamy macrophages and cytoplasmic vacuolations
CC(O)C(=O)O (stereo unspecified) [LACTIC ACID] | Negative: based on the absence of positive reported data from WMDD
Nc1ccn([C@@H]2CS[C@H](CO)O2)c(=O)n1 [LAMIVUDINE] | Negative: based on the absence of positive reported data from WMDD
Cc1oncc1C(=O)Nc1ccc(C(F)(F)F)cc1 [LEFLUNOMIDE] | Negative: based on the absence of positive reported data from WMDD
CC(C)C[C@H](N)C(=O)O [LEUCINE] | Negative: based on the absence of positive reported data from WMDD
c1ccc([C@H]2CN3CCSC3=N2)cc1 [LEVAMISOLE] | Negative: based on the absence of positive reported data from WMDD
C[N+](C)(C)C[C@H](O)CC(=O)[O-] [LEVOCARNITINE] | Negative: based on the absence of positive reported data from WMDD
C[C@H]1COc2c(N3CCN(C)CC3)c(F)cc3c(=O)c(C(=O)O)cn1c23.C[C@H]1COc2c(N3CCN(C)CC3)c(F)cc3c(=O)c(C(=O)O)cn1c23.O [LEVOFLOXACIN] | Negative: confirmed by electron microscopy
CC[C@H](OC(C)=O)C(C[C@H](C)N(C)C)(c1ccccc1)c1ccccc1 [LEVOMETHADYL ACETATE] | Negative: based on the absence of positive reported data from WMDD
CCN(CC)CC(=O)Nc1c(C)cccc1C [LIDOCAINE] | Positive: weak inducer based on presence of foamy macrophages and cytoplasmic vacuolations
NC[C@@H]1O[C@H](O[C@H]2[C@@H](O)[C@H](O[C@@H]3[C@@H](O)[C@H](N)C[C@H](N)[C@H]3O[C@H]3O[C@H](CO)[C@@H](O)C[C@H]3N)O[C@@H]2CO)[C@H](N)[C@@H](O)[C@@H]1O[C@H]1O[C@H](CO)[C@@H](O)[C@H](O)[C@@H]1O [LIVIDOMYCIN] | Negative: based on the absence of positive reported data from WMDD
CN1[C@@H](CC(=O)c2ccccc2)CCC[C@H]1C[C@H](O)c1ccccc1 [LOBELINE] | Negative: based on the absence of positive reported data from WMDD
CCOC(=O)N1CCC(=C2c3ccc(Cl)cc3CCc3cccnc32)CC1 [LORATADINE] | Positive: weak inducer based on presence of foamy macrophages and cytoplasmic vacuolations
O=C1Nc2ccc(Cl)cc2C(c2ccccc2Cl)=NC1O (stereo unspecified) [LORAZEPAM] | Negative: based on the absence of positive reported data from WMDD
CN1CCN(C2=Nc3ccccc3Oc3ccc(Cl)cc32)CC1 [LOXAPINE] | Negative: based on the absence of positive reported data from WMDD
CCN(CC)CCNc1ccc(C)c2sc3ccccc3c(=O)c12 [LUCANTHONE] | Negative: based on the absence of positive reported data from WMDD
CCN(CC)C(=O)[C@@H]1C=C2c3cccc4[nH]cc(c34)C[C@H]2N(C)C1 [LYSERGIDE] | Positive: weak inducer based on presence of foamy macrophages and cytoplasmic vacuolations

SMILES | Phospholipidosis
NCCCC[C@H](N)C(=O)O [LYSINE] | Negative: based on the absence of positive reported data from WMDD
OC[C@H]1O[C@H](O[C@H]2[C@H](O)[C@@H](O)[C@H](O)O[C@@H]2CO)[C@H](O)[C@@H](O)[C@@H]1O [MALTOSE] | Negative: based on the absence of positive reported data from WMDD
CNCCCC12CCC(c3ccccc31)c1ccccc12 [MAPROTILINE] | Positive: strong inducer confirmed by electron microscopy
CC12CC3CC(C)(C1)CC(N)(C3)C2 [MEMANTINE] | Positive: weak inducer based on presence of foamy macrophages and cytoplasmic vacuolations
CC1=CC(=O)c2ccccc2C1=O [MENADIONE] | Negative: confirmed by electron microscopy
C[N+]1(C)CCCC(OC(=O)C(O)(c2ccccc2)c2ccccc2)C1.[Br-] (stereo unspecified) [MEPENZOLATE BROMIDE] | Negative: based on the absence of positive reported data from WMDD
C[C@H]1C[C@H]2[C@@H]3CCC4=CC(=O)C=C[C@]4(C)[C@H]3C(=O)C[C@]2(C)[C@@]1(O)C(=O)CO [MEPREDNISONE] | Negative: based on the absence of positive reported data from WMDD
Sc1ncnc2nc[nH]c12 [MERCAPTOPURINE ANHYDROUS] | Negative: based on the absence of positive reported data from WMDD
CN1CCCCC1CCN1c2ccccc2Sc2ccc([S+](C)[O-])cc21 (stereo unspecified) [MESORIDAZINE] | Positive: weak inducer based on presence of foamy macrophages and cytoplasmic vacuolations
Cc1ccc(S(=O)(=O)NC(=O)NC2CCCCC2)cc1N [METAHEXAMIDE] | Negative: based on the absence of positive reported data from WMDD
Cc1cc(C)cc(OCC2CNC(=O)O2)c1 (stereo unspecified) [METAXALONE] | Negative: based on the absence of positive reported data from WMDD
CN(C)C(=N)N=C(N)N [METFORMIN] | Negative: confirmed by electron microscopy
CC(=O)OC(C)C[N+](C)(C)C (stereo unspecified) [METHACHOLINE] | Negative: based on the absence of positive reported data from WMDD
C[C@]12C=CC(=O)C=C1CC[C@@H]1[C@@H]2CC[C@@]2(C)[C@H]1CC[C@]2(C)O [METHANDROSTENOLONE] | Negative: based on the absence of positive reported data from WMDD
COc1ccccc1OCC(O)COC(N)=O (stereo unspecified) [METHOCARBAMOL] | Negative: based on the absence of positive reported data from WMDD
C[C@](N)(Cc1ccc(O)c(O)c1)C(=O)O [METHYLDOPA] | Negative: confirmed by electron microscopy
COC(=O)c1ccc(O)cc1 [METHYLPARABEN] | Negative: based on the absence of positive reported data from WMDD
CCC1(CC)C(=O)NCC(C)C1=O (stereo unspecified) [METHYPRYLON] | Negative: based on the absence of positive reported data from WMDD
CO[C@H]1[C@@H](O)C[C@H](O[C@H]2[C@@H](O)C[C@H](O[C@H]3[C@@H](O)C[C@H](O[C@H]4CC[C@@]5(C)[C@H](CC[C@@H]6[C@@H]5C[C@@H](O)[C@]5(C)[C@@H](C7=CC(=O)OC7)CC[C@]65O)C4)O[C@@H]3C)O[C@@H]2C)O[C@@H]1C [METILDIGOXIN] | Negative: based on the absence of positive reported data from WMDD
COc1ccc2cc1Oc1cc3c(cc1OC)CC[N+](C)(C)[C@H]3Cc1ccc(cc1)Oc1c(OC)c(OC)cc3c1[C@@H](C2)[N+](C)(C)CC3 [METOCURINE] | Negative: based on the absence of positive reported data from WMDD

Source: ChEMBL document CHEMBL1697821, “Development of a phospholipidosis database and predictive quantitative structure-activity relationship (QSAR) models” (Toxicol Mech Methods, 2008)
